Columns and labels:
CYP2A6 = target: T1, CYP2A6 (Homo sapiens, UniProt P11509); experiment: Cytochrome P450 inhibition, CYP2A6; assay type: in vitro ADME; details: Supersomes; read-out: IC50 (μM) 2A6
T1 construct: purchased BD Gentest, Becton-Dickinson (Supersomes); host or cells: insect cells (microsomes)
T1 sequence (P11509 1-494): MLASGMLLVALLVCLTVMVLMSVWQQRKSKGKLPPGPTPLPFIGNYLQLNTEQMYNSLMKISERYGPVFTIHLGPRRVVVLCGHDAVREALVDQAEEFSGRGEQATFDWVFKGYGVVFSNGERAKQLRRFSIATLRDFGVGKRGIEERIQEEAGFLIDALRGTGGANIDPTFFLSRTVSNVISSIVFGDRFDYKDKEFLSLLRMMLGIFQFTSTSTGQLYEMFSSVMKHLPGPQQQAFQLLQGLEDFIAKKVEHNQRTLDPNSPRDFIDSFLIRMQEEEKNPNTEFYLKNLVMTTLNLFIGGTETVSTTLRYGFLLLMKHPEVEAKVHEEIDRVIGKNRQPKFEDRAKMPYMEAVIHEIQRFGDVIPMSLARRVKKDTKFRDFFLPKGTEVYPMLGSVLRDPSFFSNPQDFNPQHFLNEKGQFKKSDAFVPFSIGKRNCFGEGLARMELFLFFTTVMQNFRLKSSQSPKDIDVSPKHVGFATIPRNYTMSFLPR
Source text: (§1) F. Assay for Cytochrome P450 Inhibition
(§2) Cytochrome P450 enzymes are implicated in the phase I metabolism of drugs. The majority of drug-drug interactions are metabolism-based and, moreover, these interactions typically involve inhibition of cytochrome P450s. Six CYP450 enzymes (CYP1A2, CYP2C8, CYP2C9, CYP2C19, CYP2D6 and CYP3A4) appear to be commonly responsible for the metabolism of most drugs and the associated drug-drug interactions. Assays to determine the binding of compounds of the invention to the various metabolically important isoforms of cytochrome P450 metabolizing enzymes are commercially available, for example NoAb BioDiscoveries (Mississaugua, ON, Canada) and Absorption Systems (Exton, Pa., USA). As well, a number of appropriate methods have been described or reviewed in the literature. (White, R. E. Ann. Rev. Pharmacol. Toxicol. 2000, 40, 133-157; Li, A. P. Drug. Disc. Today 2001, 6, 357-366; Turpeinen, M.; Korhonen, L. E. Tolonen, A.; et al. Eur. J. Pharm. Sci. 2006, 29, 130-138.)
(§3) The concentration of the inhibitor or test compound that inhibited metabolite formation by 50% (IC50) was calculated by non-linear regression analysis of the % inhibition vs. log concentration (M) curve.

CYP2B6 = target: T2, CYP2B6 (Homo sapiens, UniProt P20813); experiment: Cytochrome P450 inhibition, CYP2B6; assay type: in vitro ADME; details: Supersomes; read-out: IC50 (μM) 2B6
T2 construct: purchased BD Gentest, Becton-Dickinson (Supersomes); host or cells: insect cells (microsomes)
T2 sequence (P20813 1-491): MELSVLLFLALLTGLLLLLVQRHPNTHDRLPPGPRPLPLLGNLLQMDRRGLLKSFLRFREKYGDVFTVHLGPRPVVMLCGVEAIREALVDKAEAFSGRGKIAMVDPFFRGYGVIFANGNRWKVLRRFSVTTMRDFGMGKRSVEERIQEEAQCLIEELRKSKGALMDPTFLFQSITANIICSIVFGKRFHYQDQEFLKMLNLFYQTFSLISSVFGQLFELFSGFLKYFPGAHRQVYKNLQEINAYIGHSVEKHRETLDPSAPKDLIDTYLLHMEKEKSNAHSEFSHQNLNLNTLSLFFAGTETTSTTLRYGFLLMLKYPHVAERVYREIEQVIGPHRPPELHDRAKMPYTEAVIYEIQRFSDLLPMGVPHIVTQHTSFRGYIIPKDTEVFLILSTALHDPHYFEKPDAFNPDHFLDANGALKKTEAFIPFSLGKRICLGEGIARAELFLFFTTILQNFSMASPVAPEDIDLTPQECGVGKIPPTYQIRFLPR
Source text: as §1, §2, §3

[1] = test system: isolated colonic segments from the shrew; experiment: Contractile activity of isolated muscle strips of the shrew
Source text: J. Evaluation of Contractile Activity of Isolated Muscle Strips from the Stomach, Duodenum and Colon of the Shrew.
Motilin (threshold concentration of 10^−8 M) enhances contractions induced by electrical field stimulation (4 Hz) by a post-ganglionic interaction with the cholinergic neurotransmission. At higher concentrations, motilin causes a tonic contraction interacting directly with the antral smooth muscle. Analogously, the effects of motilin and [Nle^13]-motilin (Calbiochem), as selective agonists of the motilin receptor, on smooth muscle strips isolated from the gastric antrum, the circular muscle of the duodenum and the colon of the shrew were investigated. Immunohistochemical studies have shown that endocrine cells in the GI tract of the musk shrew express motilin (Kanamori, Y.; Nakazawa, S.; Kitoh, J.; Hoshino, M. The distribution of endocrine cells in the mucosa of the gastrointestinal tract of the house musk shrew, Suncus murinus (Insectivora). Cell. Tissue Res. 1989, 258, 365-71; Kitamura, N.; Yamada, J.; Watanabe, T.; Yamashita, T. An immunohistochemical study on the distribution of endocrine cells in the gastrointestinal tract of the musk shrew, Suncus murinus. Histol Histopathol. 1990, 5, 83-88.) Shrews were fasted for 8-10 h, euthanized with CO2 inhalation, and the stomach, the duodenum and colon isolated immediately and placed in Krebs buffer aerated with 95% O2 and 5% CO2. Specifically, mucosa-free circular muscle strips were isolated from the antral region, the duodenum and the colon using a dissecting microscope. Isometric contractions were recorded in organ baths following equilibration at optimal tension using the PowerLab data acquisition system. […]
To define the effect of test compounds on different regions of the GI tract of the shrew (gastric antrum, […] and colon) and to evaluate the antagonist affinity of test compounds in this model system, the ability of varying concentrations of test compound to antagonize the motilin or [Nle^13]-motilin-induced contractions was measured in organ baths as described above. […]

IC50 (CYP2A6) [µM] | IC50 (CYP2B6) [µM] | SMILES | effect on contractile response to 0.3 μM [Nle^13]-motilin ([1]; 0.01 μM-10 μM, FIG. 18) | effect on contractile response to 0.3 μM motilin ([1]; 0.01 μM-10 μM, FIG. 18) | change in basal contractile activity ([1]; data not shown)
> 100 | > 100 | CCC[C@@H]1NC(=O)[C@@H](C(C)C)NC(=O)[C@@H](Cc2cccc(F)c2)N[C@@H](C)COc2ccccc2CCCNC1=O [Compound 551] | – | – | –
– | – | CCC[C@@H]1NC(=O)[C@@H](C(C)C)NC(=O)[C@@H](Cc2ccc(O)c(Cl)c2)N[C@@H](C)COc2ccccc2CCCNC1=O [Compound 552] | dose-dependent inhibition | dose-dependent inhibition | did not cause a significant change
> 100 | > 100 | CCC[C@@H]1NC(=O)[C@@H](C(C)C)NC(=O)[C@@H](Cc2ccc(O)c(C(C)(C)C)c2)NCCOc2ccccc2CCCNC1=O [Compound 553] | – | – | –

From patent US9133235B2, “Macrocyclic antagonists of the motilin receptor for treatment of gastrointestinal dysmotility disorders” (Ocera Therapeutics, Inc., priority 2006, dated 2015)
